# Entries after “also recorded” stand apart in the source; their conditions may differ.
# How the values were obtained:
# [1] = tested on: streptozotocin-induced diabetic rats; assay: chronic oral treatment, glycemia of streptozotocin (45 mg/kg) diabetic rats; assay type: in vivo, rat
# Protocol: The effect of the oral administration of hexaquis(benzylammonium) decavanadate on glycemia from diabetic rats was also studied. Diabetes was induced in rats by intravenous administration of streptozotocin, and subsequently, a hexaquis(benzylammonium) decavanadate or sodium decavanadate unique dose was administered to the rats. […] After seven days of treatment, the dose was increased at 10 μmol/kg/day which was maintained for an additional ten days. […] Thus, glycemia in sodium decavanadate treated rats was approximately 450 mg/dl and glycemia of hexaquis(benzylammonium) decavanadate treated rats was approximately 250 mg/dl.
# (§1) Chronic in vivo efficacy of B6V10 was evaluated in streptozotocin-induced diabetic rats and in db/db mice. Streptozotocin-induced (45 mg/kg) diabetic rats were subcutaneously treated with hexaquis(benzylammonium) decavanadate (2.5 μmol/kg) (B6V10, solid squares, FIG. 8A) or with decavanadate (2.5 μmol/kg) (V10, open circles, FIG. 8A) delivered subcutaneously by osmotic minipumps implanted in the dorsal region. Diabetic rats were also sham-operated (untreated, solid diamonds, FIG. 8A). […] These experiments were repeated using an oral administration protocol. Streptozotocin-induced (45 mg/kg) diabetic rats were orally treated with hexaquis(benzylammonium) decavanadate (5 μmol/kg from day 0 to day 7 and 10 μmol/kg/day from day 7 to day 17) (B6V10, solid squares, FIG. 8B) or received decavanadate (10 μmol/kg) (V10, open circles, FIG. 8B). Nondiabetic rats were also untreated (solid triangles, FIG. 8B).
# [2] = tested on: streptozotocin-induced diabetic rats with undetectable circulating insulin
# Protocol: Male Wistar rats weighting 180-220 g were purchased from Harlan (Interfauna Ibèrica S.A., Spain). Diabetes was induced by a single intraperitoneal injection of a freshly prepared solution of streptozotocin (in some studies the dose was 45 mg/kg body weight and in some others 100 mg/kg body weight dissolved in 50 mM citrate buffer, pH 4.5). Only diabetic animals with glycemia above 300 mg/dl were used. The animals were housed in animal quarters at 22° C. with a 12 h light/12 h dark cycle and were fed ad libitum. All procedures used were approved by the animal ethical committee of the University of Barcelona, Spain.
# Osmotic minipumps delivering B6V10 (2.5 μmol/kg body wt/day) or decavanadate (2.5 μmol/kg body wt/day) were implanted subcutaneously in diabetic rats anaesthetised by ketamine hydrochloride (95 mg/kg) and xylasine (10 mg/kg). […] Glycemia was measured on arterio-venous blood collected from the tail vessels at 09:00 am for two weeks, before the administration of vanadate. Insulin concentrations were determined before and after treatment. In another set of experiments, B6V10 was orally administered at a single dose of 5 μmol/kg/day during the first week and 10 μmol/kg/day during 2 additional weeks by gastric gavage. A control group received the corresponding decavanadate salt in the absence of benzylamine. At the end of the treatment, animals were sacrificed and the liver, fat pad, heart and lung were kept at −80° C. and the plasma at −20° C. until their use for in vitro analysis.
# In glucose tolerance tests and in chronic treatments, circulating glucose concentrations were determined by a rapid glucose analyser (Accutrend® Sensor Comfort, Roche, Basel. Switzerland). Plasma insulin (IRI) concentration was determined by ELISA method using a kit obtained from Crystal Chem. Inc. (Downers Grove, Ill.).
# To this end, rats were made diabetic by the injection of a large dose of streptozotocin (100 mg/kg) that eliminates β-pancreatic insulin content.
# [3] = tested on: streptozotocin-induced diabetic rats; assay: chronic subcutaneous (osmotic minipump) treatment, glycemia of streptozotocin (45 mg/kg) diabetic rats; assay type: in vivo, rat; details: for effect on glycemia: 2.5 μmol/kg/day subcutaneous by osmotic minipumps, about two weeks
# Protocol: Insulin concentrations were determined before and after treatment.
# The effect of chronic administration of hexaquis(benzylammonium) decavanadate on glycemia from diabetic rats was determined. Thus, diabetes was induced in rats by intravenous administration of streptozotocin, which destroys the β-pancreatic cells that produce insulin.
# as §1
# adipocyte lipolysis = assay: adipocyte lipolysis; assay type: cell-based
# db/db mice = assay: chronic treatment of obese diabetic db/db mice, glycemia; assay type: in vivo, mouse
# Protocol: as §1
# [4] = tested on: adipocytes from treated diabetic rats; assay: glucose transport in adipocytes isolated from chronically treated diabetic rats; assay type: in vivo, rat; details: fourteen days of treatment
substance,measurement,setting,value
hexaquis(benzylammonium) decavanadate [Example B6V10],effect on glycemia,"[1]; daily oral administration, 17 days",significant correction of hyperglycemia; also recorded: significant lowering in blood glucose levels; also recorded: ameliorated hyperglycemia
same,time of treatment after which decrease of hyperglycemia was detected,[1]; oral 5 μmol/kg/day,two
same,effect on hyperglycemia,[1]; oral 5 μmol/kg/day for seven days,moderate decrease of hyperglycemia
same,effect of dosage increase on glycemia,[1]; oral 10 μmol/kg/day from day 7 for additional ten days,additional decrease in glycemia
same,glycemia,"[1]; oral, after dosage increase to 10 μmol/kg/day",approximately 250 mg/dl
same,plasma glucose,"[2]; after 28 days, 2.5 μmol/kg",reduced
same,plasma insulin,"[2]; after 28 days, 2.5 μmol/kg",without any observable change
same,body weight or organ weights,"[2]; rat, in vivo",did not affect
same,time of treatment after which reduction of hyperglycemia was detected,[3]; 2.5 μmol/kg/day subcutaneous,four
same,effect on glycemia,[3],significant correction of hyperglycemia; also recorded: significant lowering in blood glucose levels; also recorded: ameliorated hyperglycemia
same,effect on glycemia,[3]; listed as hexaquis(benzylammonium) decavanadate,rapid reduction of the hyperglycemia
same,day of treatment from which glycemia differed significantly from the untreated group,"[3]; Bonferroni post-tests, P<0.01, FIG. 8A",8
same,adipocyte lipolysis,adipocyte lipolysis,inhibited
same,effect on glycemia,db/db mice,ameliorated glycemia
same,glucose transport in adipocytes of treated rats under basal conditions,[4],increased glucose transport under basal conditions equivalent to that seen in the presence of insulin

# Reference: patent US20080227809A1, “Arylalkylamine Vanadium (V) Salts for the Treatment and/or Prevention of Diabetes Mellitus” (GENMEDICA THERAPEUTICS SL, priority 2004, published 2008)
